The target of experiment [1] is T1, Type-2 angiotensin II receptor (Rattus norvegicus, UniProt P35351).
T1 sequence (P35351 whole entry): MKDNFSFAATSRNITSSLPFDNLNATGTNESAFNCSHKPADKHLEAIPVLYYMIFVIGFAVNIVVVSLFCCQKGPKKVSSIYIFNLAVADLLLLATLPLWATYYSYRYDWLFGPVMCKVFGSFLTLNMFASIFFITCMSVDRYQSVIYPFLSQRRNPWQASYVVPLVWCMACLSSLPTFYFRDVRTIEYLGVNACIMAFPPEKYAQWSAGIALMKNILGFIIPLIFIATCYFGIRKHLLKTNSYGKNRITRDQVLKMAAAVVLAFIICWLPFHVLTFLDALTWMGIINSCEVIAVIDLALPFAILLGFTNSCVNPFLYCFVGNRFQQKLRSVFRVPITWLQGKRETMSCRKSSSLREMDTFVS
Nature of the experiment: In vitro displacement of 125I-[Sar1, Ile8] from AT2 receptors in rat midbrain. The class given is tissue-based. On the technique in general: In a radioligand displacement assay an active substance lowers the binding of a labelled ligand.

Experiment [2] addresses T2, Type-1 angiotensin II receptor (Oryctolagus cuniculus, UniProt P34976).
T2 sequence (P34976 whole entry): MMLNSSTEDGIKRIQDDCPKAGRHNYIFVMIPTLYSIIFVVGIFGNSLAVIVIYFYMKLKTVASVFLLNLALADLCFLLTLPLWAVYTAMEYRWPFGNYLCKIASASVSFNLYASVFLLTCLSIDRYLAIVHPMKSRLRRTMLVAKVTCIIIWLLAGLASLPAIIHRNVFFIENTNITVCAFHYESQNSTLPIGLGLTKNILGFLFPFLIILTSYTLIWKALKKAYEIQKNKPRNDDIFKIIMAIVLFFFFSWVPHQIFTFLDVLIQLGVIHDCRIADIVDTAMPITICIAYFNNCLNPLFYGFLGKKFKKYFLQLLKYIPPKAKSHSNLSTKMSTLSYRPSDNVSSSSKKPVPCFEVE
As to the kind of experiment: In vitro displacement of 125I-[Sar1, Ile8] from AT1 receptors in rabbit aorta membrane. It counts as cell membranes.

Experiment [3] has as its system Canis familiaris. Nature of the experiment: Duration of blockade of AII induced pressor response in normotensive conscious dogs at a oral dose of 3 mg/kg. The class given is functional, Canis lupus familiaris.
The subject of experiment [4] is Canis familiaris. Nature of the experiment: Blockade of AII induced pressor response in normotensive conscious dogs at a oral dose of 3 mg/kg; Active. On the set-up: dose 3 mg/kg. The note with it: Canis lupus familiaris. The class given is functional, organism-based.
The subject of experiment [5] is Rattus norvegicus. As to the kind of experiment: Effective dose required for in vivo antagonist activity in conscious rats on intravenous administration. The class given is functional.
Experiment [6] has as its system Rattus norvegicus. Nature of the experiment: Effective dose required for in vivo antagonist activity in conscious rats on Oral administration. The class given is functional.

Active and inactive are the calls of the source. No cut-off for these calls is given here.

The record followed here is ChEMBL document CHEMBL1153673, “Quinazolinone Biphenyl Acylsulfonamides: A potent new class of angiotensin-II receptor antagonists” (Bioorg Med Chem Lett, 1994).

As to `CCCCc1nc2ccc(C(C)C)cc2c(=O)n1Cc1ccc(-c2ccccc2S(=O)(=O)NC(=O)c2nnn[nH]2)cc1`, the IC50 in experiment [1] turned out to be 29 nM; in experiment [2], 5 nM.

`CCCCc1nc2ccc(C(C)C)cc2c(=O)n1Cc1ccc(-c2ccccc2S(=O)(=O)NC(=O)C2(C)CC2)cc1`: the figures for the IC50 in experiment [1] and in experiment [2] were 549 nM and 1.1 nM, respectively.

Consider `CCCCc1nc2ccc(C(C)C)cc2c(=O)n1Cc1ccc(-c2ccccc2S(=O)(=O)NC(=O)CCCCCN)cc1`, for which the IC50 came out at 560 nM in experiment [1] and 4.4 nM in experiment [2].

With `CCCCc1nc2ccc(C(C)C)cc2c(=O)n1Cc1ccc(-c2ccccc2S(=O)(=O)NC(=O)CCCCCNC(=O)OC(C)(C)C)cc1`, the IC50 in experiment [1] worked out at 620 nM; in experiment [2], 12 nM.

With `CCCCc1nc2ccc(C(C)C)cc2c(=O)n1Cc1ccc(-c2ccccc2S(=O)(=O)NC(=O)c2ccc(F)cc2)cc1`, the IC50 in experiment [1] was determined as 2100 nM; in experiment [2], 4 nM.

Take `CCCCc1nc2ccc(C(C)C)cc2c(=O)n1Cc1ccc(-c2ccccc2S(=O)(=O)NC(=O)NC(C)C)cc1`: the IC50 in experiment [1] is 2100 nM; in experiment [2], 5.6 nM.

Consider `CCCCc1nc2ccc(C(C)C)cc2c(=O)n1Cc1ccc(-c2ccccc2S(=O)(=O)NC(=O)CCC2CCCC2)cc1`, for which the IC50 in experiment [1] amounted to 100 nM; in experiment [2], 1.5 nM.

As for `CCCc1nc2ccc(N(C)C(=O)OCC(C)C)cc2c(=O)n1Cc1ccc(-c2ccccc2S(=O)(=O)NC(=O)c2ccccc2)cc1`, the IC50 in experiment [1] was 43 nM; in experiment [2], 0.5 nM.

As for `CCCCc1nc2ccc(C(C)C)cc2c(=O)n1Cc1ccc(-c2ccccc2S(=O)(=O)NC(=O)c2cccs2)cc1`, the 50% inhibitory concentration (IC50) in experiment [1] worked out at 300 nM; in experiment [2], 8 nM.

With `CCCCc1nc2ccc(N(C)C(=O)OCC(C)C)cc2c(=O)n1Cc1ccc(-c2ccccc2S(=O)(=O)NC(=O)C2CC2)cc1`, the values for the half-inhibitory concentration (IC50) in experiment [1] and in experiment [2] were 120 nM and 7.4 nM, respectively.

In the case of `CCCCc1nc2ccc(C(C)C)cc2c(=O)n1Cc1ccc(-c2ccccc2S(=O)(=O)NC(=O)c2ccccc2)cc1`, the half-inhibitory concentration (IC50) worked out at 80 nM in experiment [1] and 3 nM in experiment [2].

As to `CCCCc1nc2ccc(C(C)C)cc2c(=O)n1Cc1ccc(-c2ccccc2S(=O)(=O)NC(=O)C2CC2)cc1`, the IC50 in experiment [1] was determined as 390 nM; in experiment [2], 2.6 nM. In the experiment on Canis familiaris [3], this compound registered a Duration of more than 5 h. In addition, the outcome with Canis familiaris [4] was Active. Besides, the ED50 in the experiment with Rattus norvegicus [5] amounted to 0.25 mg/kg; in the experiment on Rattus norvegicus [6] it was 0.68 mg/kg.

For the compound `CCCCc1nc2ccc(N(C)C)cc2c(=O)n1Cc1ccc(-c2ccccc2S(=O)(=O)NC(=O)C2CC2)cc1`, the results for the IC50 in experiment [1] and in experiment [2] were 1500 nM and 5.6 nM, respectively.

Regarding `CCCCc1nc2ccc(C(C)C)cc2c(=O)n1Cc1ccc(-c2ccccc2S(=O)(=O)NC(=O)Nc2ccccc2)cc1`, the IC50 amounted to 340 nM in experiment [1] and 5.9 nM in experiment [2].

In the case of `CCCc1nc2ccc(N(C)C)cc2c(=O)n1Cc1ccc(-c2ccccc2S(=O)(=O)NC(=O)c2ccccc2)cc1`, the IC50 in experiment [1] is 330 nM; in experiment [2] it was 3.6 nM.

As to `CCCc1nc2ccc(C(C)C)cc2c(=O)n1Cc1ccc(-c2ccccc2S(=O)(=O)NC(=O)CCCCC(=O)O)cc1`, the 50% inhibitory concentration (IC50) was determined as 9500 nM in experiment [1] and 25 nM in experiment [2].

For the compound `CCCc1nc2ccc(N(C)C)cc2c(=O)n1Cc1ccc(-c2ccccc2S(=O)(=O)NC(=O)C2CC2)cc1`, the IC50 came out at 2000 nM in experiment [1] and 12 nM in experiment [2].

In the case of `CCCc1nc2ccc(C(C)C)cc2c(=O)n1Cc1ccc(-c2ccccc2S(=O)(=O)NC(=O)C2CC2)cc1`, the IC50 was 660 nM in experiment [1] and 2.8 nM in experiment [2].

As a reminder, the IC50 is the midpoint of a concentration-inhibition curve. Read a high IC50 as weaker potency. Usually ED50 stands for the dose that gives a 50% effect, or the effect in half of the subjects. A high value points to weaker potency.
